This is an account of results in patent US20050222146A1, “N-substituted-n-sulfonylaminocyclopropane compounds and pharmaceutical use thereof” (priority 2003, published 2005).

Common to all, as to type: biochemical
For assay [1], the target named is T1, Recombinant Human MMP-13 (Homo sapiens, UniProt P45452).
T1 construct: purchased R&D systems 511-MM
Kind of assay: MMP-13 inhibition, MMP-13 specific fluorescent substrate with quencher. The conditions noted are these: synthetic substrate 7-MCA-Pro-CHA-Gly-NVal-His-Ala-DPA, 25° C. for 1 h; read-out: Experimental Example 3 IC50 MMP13. As to the method:
Inhibitory activity of tested compounds on MMP-13 was measured using MMP-13 specific fluorescent substrate with quencher.
The enzyme and substrate were diluted with Tris-HCl buffer, and test compounds were diluted with dimethyl sulfoxide (DMSO).
Test compounds and the enzyme (Recombinant Human MMP-13: R&D systems, 511-MM) were added into 96-well plate. The reaction was initiated by adding synthetic substrate (7-MCA-Pro-CHA-Gly-NVal-His-Ala-DPA: enzyme systems products, Met-06) into the plate. After incubation at 25° C. for 1 h, the reaction was terminated by addition of reaction terminating solution containing acetic acid. Fluorescence intensity of each well was measured (Ex: 325 nm, Em: 405 nm) and the MMP-13 inhibitory activity of the compound in each well (%) was calculated based on the values of enzyme-free well and inhibitor-free well. The inhibitory activity of the compound was represented as IC50 (μM).

Assay [2] deals with T2, MMP-1 (Homo sapiens, UniProt P03956).
T2 sequence (P03956 100-469): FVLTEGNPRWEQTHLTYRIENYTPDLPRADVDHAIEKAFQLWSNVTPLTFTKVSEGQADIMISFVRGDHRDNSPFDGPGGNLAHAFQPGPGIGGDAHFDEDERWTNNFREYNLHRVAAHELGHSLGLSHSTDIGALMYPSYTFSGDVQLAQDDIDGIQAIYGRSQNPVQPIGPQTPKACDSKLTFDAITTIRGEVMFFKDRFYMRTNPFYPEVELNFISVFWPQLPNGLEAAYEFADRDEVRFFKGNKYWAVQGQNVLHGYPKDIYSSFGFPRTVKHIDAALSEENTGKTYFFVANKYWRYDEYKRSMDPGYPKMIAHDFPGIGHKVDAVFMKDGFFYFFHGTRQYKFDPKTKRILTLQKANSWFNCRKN
Kind of assay: MMP-1 inhibitory action, Type I collagen Activity Measurement kit (FITC-labeled collagen type I). The conditions noted are these: 37° C. for 3 hr, read-out: Experimental Example 2 IC50 MMP1.

In assay [3] the target is T3, aggrecanase-1 (Homo sapiens, UniProt O75173).
T3 sequence (O75173 213-837): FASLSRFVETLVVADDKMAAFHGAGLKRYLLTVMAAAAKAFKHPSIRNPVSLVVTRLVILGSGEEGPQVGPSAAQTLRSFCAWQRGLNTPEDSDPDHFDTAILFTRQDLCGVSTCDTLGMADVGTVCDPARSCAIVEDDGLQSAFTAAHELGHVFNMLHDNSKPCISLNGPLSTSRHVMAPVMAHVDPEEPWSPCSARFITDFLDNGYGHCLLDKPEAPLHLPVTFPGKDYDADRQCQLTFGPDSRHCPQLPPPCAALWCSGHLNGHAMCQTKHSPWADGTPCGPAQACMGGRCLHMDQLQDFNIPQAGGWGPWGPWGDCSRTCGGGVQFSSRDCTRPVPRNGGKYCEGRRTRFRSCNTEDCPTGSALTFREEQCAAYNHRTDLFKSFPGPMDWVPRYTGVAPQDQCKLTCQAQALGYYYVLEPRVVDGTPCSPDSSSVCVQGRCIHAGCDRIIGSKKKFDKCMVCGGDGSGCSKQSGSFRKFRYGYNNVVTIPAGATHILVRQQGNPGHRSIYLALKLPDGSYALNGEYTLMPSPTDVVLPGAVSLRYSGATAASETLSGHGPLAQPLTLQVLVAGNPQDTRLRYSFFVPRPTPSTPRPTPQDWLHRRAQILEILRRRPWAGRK
Kind of assay: Aggrecanase-1 inhibitory action, Particle Assay (GAG release from aggrecan-containing polyacrylamide particles). The conditions noted are these: 37° C. for 15 hr, read-out: Experimental Example 1 IC50 AG1. Summed up:
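Enzyme and test compound (DMSO dilutions) in Tris-HCl buffer incubated with aggrecan-containing polyacrylamide particles at 37 °C for 15 hr. Released GAG in supernatant quantified with 1,9-dimethylmethylene blue at 595 nm against whale chondroitin sulfate standard; % inhibition versus enzyme-free and inhibitor-free wells gives IC50 (μM).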

Consider `CN([C@@]1(C(=O)O)C[C@@H]1c1ccccc1)S(=O)(=O)c1ccc(-c2ccc(Cl)cc2)s1` [Example 2-03, (1S,2R)-1-{[5-(4-Chloro-phenyl)-thiophene-2-sulfonyl]-methyl-amino}-2-phenyl-cyclopropanecarboxylic acid], for which the results for the half-inhibitory concentration (IC50) in assay [1], in assay [2] and in assay [3] were no less than 10000 nM, no less than 10000 nM and no less than 1000 nM, respectively.
As for `O=C(O)C1(N(CCO)S(=O)(=O)c2ccc(-c3ccc(Cl)cc3)s2)CC1c1ccccc1` (stereo not drawn) [Example 2-04, (1R*,2S*)-1-[[5-(4-Chloro-phenyl)-thiophene-2-sulfonyl]-(2)-hydroxy-ethyl)-amino]-2-phenyl-cyclopropanecarboxylic acid], the IC50 in assay [1] was no less than 1000 nM; in assay [2], no less than 10000 nM; in assay [3] it was no less than 1000 nM.
Regarding `O=C(O)CN([C@]1(C(=O)O)C[C@H]1c1ccccc1)S(=O)(=O)c1ccc(-c2ccc(Cl)cc2)s1` [Example 2-08, (1R,2S)-1-{Carboxymethyl-[5-(4-chloro-phenyl)-thiophene-2-sulfonyl]-amino}-2-phenyl-cyclopropanecarboxylic acid], the figures for the IC50 in assay [1], in assay [2] and in assay [3] were no less than 10000 nM, no less than 10000 nM and less than 100 nM, respectively.
With `O=C(O)CN([C@]1(C(=O)O)C[C@H]1c1ccccc1)S(=O)(=O)c1ccc(-c2cc(C(F)(F)F)on2)s1` [Example 2-09, (1R,2S)-1-{Carboxymethyl-[5-(5-trifluoromethyl-isoxazol-3-yl)-thiophene-2-sulfonyl]-amino}-2-phenyl-cyclopropanecarboxylic acid], the IC50 in assay [1] was no less than 1000 nM; in assay [2], no less than 10000 nM; in assay [3], less than 100 nM.
The matching figures for `O=C(O)CN([C@@]1(C(=O)O)C[C@@H]1c1ccccc1)S(=O)(=O)c1ccc(-c2ccc(Cl)cc2)s1` [Example 2-10, (1S,2R)-1-{Carboxymethyl-[5-(4-chloro-phenyl)-thiophene-2-sulfonyl]-amino}-2-phenyl-cyclopropanecarboxylic acid]: no less than 10000 nM, no less than 10000 nM and less than 1000 nM.
The matching figures for `CN1CCN(C(=O)CN([C@@]2(C(=O)O)C[C@@H]2c2ccccc2)S(=O)(=O)c2ccc(-c3ccc(Cl)cc3)s2)CC1` [Example 2-11, (1S,2R)-1-{[5-(4-Chloro-phenyl)-thiophene-2-sulfonyl]-[2-(4-methyl-piperazin-1-yl)-2-oxo-ethyl]-amino}-2-phenyl-cyclopropanecarboxylic acid]: no less than 10000 nM, no less than 10000 nM and no less than 1000 nM.
The matching figures for `CN([C@]1(C(=O)O)C[C@H]1c1ccccc1)S(=O)(=O)c1ccc(-c2ccc(Cl)cc2)s1` [Example 2-12, (1R,2S)-1-{[5-(4-Chloro-phenyl)-thiophene-2-sulfonyl]-methyl-amino}-2-phenyl-cyclopropanecarboxylic acid]: no less than 1000 nM, no less than 10000 nM and no less than 1000 nM.
Consider `CN1CCN(C(=O)OCCN([C@]2(C(=O)O)C[C@H]2c2ccccc2)S(=O)(=O)c2ccc(-c3ccc(Cl)cc3)s2)CC1` [Example 2-15, 4-Methyl-piperazine-1-carboxylic acid 2-{((1R,2S)-1-carboxy-2-phenyl-cyclopropyl)-[5-(4-chloro-phenyl)-thiophene-2-sulfonyl]-amino}-ethyl ester], for which the results for the IC50 in assay [1], in assay [2] and in assay [3] were no less than 1000 nM, no less than 10000 nM and no less than 1000 nM, respectively.
Turning to `O=C(CN([C@]1(C(=O)O)C[C@H]1c1ccccc1)S(=O)(=O)c1ccc(-c2ccc(Cl)cc2)s1)N1CCOCC1` [Example 2-16, (1R,2S)-1-[[5-(4-Chloro-phenyl)-thiophene-2-sulfonyl]-(2-morpholin-4-yl-2-oxo-ethyl)-amino]-2-phenyl-cyclopropanecarboxylic acid], the IC50 in assay [1] was no less than 1000 nM; in assay [2], no less than 10000 nM; in assay [3], no less than 1000 nM.
Take `CN1CCN(C(=O)CN([C@]2(C(=O)O)C[C@H]2c2ccccc2)S(=O)(=O)c2ccc(-c3ccc(Cl)cc3)s2)CC1` [Example 2-17, (1R,2S)-1-{[5-(4-Chloro-phenyl)-thiophene-2-sulfonyl]-[2-(4-methyl-piperazin-1-yl)-2-oxo-ethyl]-amino}-2-phenyl-cyclopropanecarboxylic acid]: the values for the IC50 in assay [1], in assay [2] and in assay [3] were no less than 1000 nM, no less than 10000 nM and no less than 1000 nM, respectively.
For the molecule `O=C(O)[C@@]1(N(CCCO)S(=O)(=O)c2ccc(-c3ccc(Cl)cc3)s2)C[C@H]1c1ccccc1` [Example 2-18, (1R,2S)-1-[[5-(4-Chloro-phenyl)-thiophene-2-sulfonyl]-(3-hydroxy-propyl)-amino]-2-phenyl-cyclopropanecarboxylic acid], the half-inhibitory concentration (IC50) in assay [1] was less than 1000 nM; in assay [2], no less than 10000 nM; in assay [3], no less than 1000 nM.
The corresponding values for `O=C(OCCN([C@]1(C(=O)O)C[C@H]1c1ccccc1)S(=O)(=O)c1ccc(-c2ccc(Cl)cc2)s1)N1CCOCC1` [Example 2-19, Morpholine-4-carboxylic acid 2-{((1R,2S)-1-carboxy-2-phenyl-cyclopropyl)-[5-(4-chloro-phenyl)-thiophene-2-sulfonyl]-amino}-ethyl ester] are less than 1000 nM, no less than 10000 nM and no less than 1000 nM.
The corresponding values for `O=C(OCCCN([C@]1(C(=O)O)C[C@H]1c1ccccc1)S(=O)(=O)c1ccc(-c2ccc(Cl)cc2)s1)N1CCOCC1` [Example 2-20, Morpholine-4-carboxylic acid 3-{((1R,2S)-1-carboxy-2-phenyl-cyclopropyl)-[5-(4-chloro-phenyl)-thiophene-2-sulfonyl]-amino}-propyl ester] are no less than 1000 nM, no less than 10000 nM and no less than 1000 nM.
The matching figures for `CN1CCN(C(=O)OCCCN([C@]2(C(=O)O)C[C@H]2c2ccccc2)S(=O)(=O)c2ccc(-c3ccc(Cl)cc3)s2)CC1` [Example 2-21, 4-Methyl-piperazine-1-carboxylic acid 3-{((1R,2S)-1-carboxy-2-phenyl-cyclopropyl)-[5-(4-chloro-phenyl)-thiophene-2-sulfonyl]-amino}-propyl ester]: no less than 1000 nM, no less than 10000 nM and no less than 1000 nM.
In the case of `O=C1CN(S(=O)(=O)c2ccc(-c3ccc(Cl)cc3)s2)C2(C(=O)O)CC2(c2ccccc2)CN1` (stereo not drawn) [Example 2-25, 1R*,7S*)-2-[5-(4-Chloro-phenyl)-thiophene-2-sulfonyl]-4-oxo-7-phenyl-2,5-diaza-bicyclo[5.1.0]octane-1-carboxylic acid], the IC50 is no less than 1000 nM in assay [1], no less than 10000 nM in assay [2] and no less than 1000 nM in assay [3].
In the case of `CN1CC2(c3ccccc3)CC2(C(=O)O)N(S(=O)(=O)c2ccc(-c3ccc(Cl)cc3)s2)CC1=O` (stereo not drawn) [Example 2-27, (1R*,7R*)-2-[5-(4-Chloro-phenyl)-thiophene-2-sulfonyl]-5-methyl-4-oxo-7-phenyl-2-,5-diaza-bicyclo[5.1.0]octane-1-carboxylic acid], the IC50 in assay [1] is no less than 1000 nM; in assay [2] it was no less than 10000 nM; in assay [3] it was no less than 1000 nM.

What is called IC50 is the concentration needed to halve the response being measured.
